Source: patent publication US9249151B2, “Bis-amido pyridines” (Boehringer Ingelheim International GmbH, priority 2013, dated 2016)
Where two headings read alike, the source gives them in different places.

Target: BIR3 domain of human cIAP1 (amino acids 256 to 363; cIAP1 BIR3) (Homo sapiens (Human), UniProt Q13490)
Experiment: cIAP1 BIR3 binding assay (DELFIA)
Protocol: XIAP BIR3 and cIAP1 BIR3 Binding Assays (DELFIA)
Peptide […]-Lys(Biotin), representing the N-terminus of mature human SMAC (SMAC peptide), was used as interaction partner in the protein-peptide interaction assay.
BIR3 domains (10 nM) were incubated with SMAC peptide (10 nM) in assay buffer (50 mM Tris, 120 mM NaCl, 0.1% BSA, 1 mM DTT, 0.05% TritonX100) for one hour at room temperature in the presence of inhibitory compounds. The assay mixture was transferred to a streptavidin coated plate and incubated for one hour at room temperature to allow binding of the biotinylated peptide and associated BIR3 domains to the plate. After several washing steps Eu labeled anti-GST antibody (e.g. Perkin Elmer DELFIA Eu-N1-antiGST AD0250) was added to detect BIR3 domain-SMAC peptide interactions m according to Perkin Elmer's instructions. […] Time resolved Europium fluoresecence was measured in a Wallac Victor using Standard assay settings.
DELFIA assay results were plotted against compound concentrations and Software GraphPad Prizm was used to calculate half maximal inhibitory concentrations (IC50 values).

[1] = BIR3 domain 10 nM, SMAC peptide 10 nM, values represent the (S)-isomers, * = racemic compound, read-out: cIAP1 BIR-3 IC50

Sequence of BIR3 domain of human cIAP1 (amino acids 256 to 363; cIAP1 BIR3) (Q13490 256-363): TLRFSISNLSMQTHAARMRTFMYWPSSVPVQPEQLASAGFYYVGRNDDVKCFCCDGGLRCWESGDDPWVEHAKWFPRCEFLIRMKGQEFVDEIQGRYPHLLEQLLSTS

IC50 [1] [µM]	IC50 [µM]	SMILES
0.036		CNC(C)C(=O)Nc1cc(-c2c(C)ccc3ncccc23)cc(NC(=O)c2ccc(C#N)cn2)n1 (centres unmarked) [Example 30, 5-cyano-N-{6-[2-(methylamino)propanamido]-4-(6-methylquinolin-5-yl)pyridin-2-yl}pyridine-2-carboxamide]
0.052		CNC(C)C(=O)Nc1cc(-c2c(C)ccc3ncccc23)cc(NC(=O)c2ncc3ccccc3n2)n1 (centres unmarked) [Example 31, N-{6-[2-(methylamino)propanamido]-4-(6-methylquinolin-5-yl)pyridin-2-yl}quinazoline-2-carboxamide]
0.053		CNC(C)C(=O)Nc1cc(-c2c(C)ccc3ncccc23)cc(NC(=O)c2ccc(F)cn2)n1 (centres unmarked) [Example 32, 5-fluoro-N-{6-[2-(methylamino)propanamido]-4-(6-methylquinolin-5-yl)pyridin-2-yl}pyridine-2-carboxamide]
0.059		CNC(C)C(=O)Nc1cc(-c2c(C)ccc3ncccc23)cc(NC(=O)c2ccc(OC)cn2)n1 (centres unmarked) [Example 33, 5-methoxy-N-{6-[2-(methylamino)propanamido]-4-(6-methylquinolin-5-yl)pyridin-2-yl}pyridine-2-carboxamide]
0.104		CNC(C)C(=O)Nc1cc(-c2c(C)ccc3ncccc23)cc(NC(=O)c2cnc(C)cn2)n1 (centres unmarked) [Example 34, 5-methyl-N-{6-[2-(methylamino)propanamido]-4-(6-methylquinolin-5-yl)pyridin-2-yl}pyrazine-2-carboxamide]
0.132		CNC(C)C(=O)Nc1cc(-c2c(C)ccc3ncccc23)cc(NC(=O)c2cc3ccccc3cn2)n1 (centres unmarked) [Example 35, N-{6-[2-(methylamino)propanamido]-4-(6-methylquinolin-5-yl)pyridin-2-yl}isoquinoline-3-carboxamide]
0.17		CNC(C)C(=O)Nc1cc(-c2c(C)ccc3ncccc23)cc(NC(=O)c2ccc3ccccc3n2)n1 (centres unmarked) [Example 36, N-{6-[2-(methylamino)propanamido]-4-(6-methylquinolin-5-yl)pyridin-2-yl}quinoline-2-carboxamide]
0.428		CNC(C)C(=O)Nc1cc(-c2c(C)ccc3ncccc23)cc(NC(=O)c2ccncn2)n1 (centres unmarked) [Example 37, N-{6-[2-(methylamino)propanamido]-4-(6-methylquinolin-5-yl)pyridin-2-yl)pyrimidine-4-carboxamide]
0.514		CNC(C)C(=O)Nc1cc(-c2c(C)ccc3ncccc23)cc(NC(=O)c2cc3ccccc3o2)n1 (centres unmarked) [Example 38, N-{6-[2-(methylamino)propanamido]-4-(6-methylquinolin-5-yl)pyridin-2-yl)-1-benzofuran-2-carboxamide]
0.553		CNC(C)C(=O)Nc1cc(-c2c(C)ccc3ncccc23)cc(NC(=O)c2ccccn2)n1 (centres unmarked) [Example 39, N-{6-[2-(methylamino)propanamido]-4-(6-methylquinolin-5-yl)pyridin-2-yl}pyridine-2-carboxamide]
0.598		CNC(C)C(=O)Nc1cc(-c2c(C)ccc3ncccc23)cc(NC(=O)c2cccc(C)n2)n1 (centres unmarked) [Example 40, 6-methyl-N-{6-[2-(methylamino)propanamido]-4-(6-methylquinolin-5-yl)pyridin-2-yl}pyridine-2-carboxamide]
0.703		CNC(C)C(=O)Nc1cc(-c2c(C)ccc3ncccc23)cc(NC(=O)c2ccn(C)n2)n1 (centres unmarked) [Example 41, 1-methyl-N-{6-[2-(methylamino)propanamido]-4-(6-methylquinolin-5-yl)pyridin-2-yl}-1H-pyrazole-3-carboxamide]
1.19		CNC(C)C(=O)Nc1cc(-c2c(C)ccc3ncccc23)cc(NC(=O)c2cc(Cl)ccn2)n1 (centres unmarked) [Example 42, 4-chloro-N-{6-[2-(methylamino)propanamido]-4-(6-methylquinolin-5-yl)pyridin-2-yl}pyridine-2-carboxamide]
2.6		CNC(C)C(=O)Nc1cc(-c2c(C)ccc3ncccc23)cc(NC(=O)c2cccnn2)n1 (centres unmarked) [Example 43, N-{6-[2-(methylamino)propanamido]-4-(6-methylquinolin-5-yl)pyridin-2-yl}pyridazine-3-carboxamide]
3.19		CNC(C)C(=O)Nc1cc(-c2c(C)ccc3ncccc23)cc(NC(=O)c2ccc3cnccc3c2)n1 (centres unmarked) [Example 44, N-{6-[2-(methylamino)propanamido]-4-(6-methylquinolin-5-yl)pyridin-2-yl}isoquinoline-6-carboxamide]
4.94		CNC(C)C(=O)Nc1cc(-c2c(C)ccc3ncccc23)cc(NC(=O)c2cn(C)cn2)n1 (centres unmarked) [Example 45, 1-methyl-N-{6-[2-(methylamino)propanamido]-4-(6-methylquinolin-5-yl)pyridin-2-yl}-1H-imidazole-4-carboxamide]

IC50 [1] [µM]	IC50 [µM]	SMILES
6.33		CNC(C)C(=O)Nc1cc(-c2c(C)ccc3ncccc23)cc(NC(=O)c2cc(-c3ccccc3)on2)n1 (centres unmarked) [Example 46, N-{6-[2-(methylamino)propanamido]-4-(6-methylquinolin-5-yl)pyridin-2-yl}-5-phenyl-1,2-oxazole-3-carboxamide]
0.017		CNC(C)C(=O)Nc1cc(-c2ccncc2C)cc(NC(=O)c2ccc(Cl)cn2)n1 (centres unmarked) [Example 47, 5-chloro-N-{6-[2-(methylamino)propanamido]-4-(3-methylpyridin-4-yl)pyridin-2-yl}pyridine-2-carboxamide]
0.001		CNC(C)C(=O)Nc1cc(-c2cccc3nc(C)c(C)n23)cc(NC(=O)c2cc3c(cn2)COC3)n1 (centres unmarked) [Example 48, N-(4-{2,3-dimethylimidazo[1,2-a]pyridin-5-yl}-6-[2-(methylamino)propanamido]pyridin-2-yl)-1H,3H-furo[3,4-c]pyridine-6-carboxamide]
5.35		CNC(C)C(=O)Nc1cc(-c2cccc3nc(C)c(C)n23)cc(NC(=O)Cc2ccccc2)n1 (centres unmarked) [Example 49, N-(4-{2,3-dimethylimidazo[1,2-a]pyridin-5-yl}-6-(2-phenylacetamido)pyridin-2-yl)-2-(methylamino)propanamide]
0.348		CNC(C)C(=O)Nc1cc(-c2cccc3nc(C)c(C)n23)cc(NC(=O)c2cc3ccccc3[nH]2)n1 (centres unmarked) [Example 50, N-(4-{2,3-dimethylimidazo[1,2-a]pyridin-5-yl}-6-[2-(methylamino)propanamido]pyridin-2-yl)-1H-indole-2-carboxamide]
0.001		CNC(C)C(=O)Nc1cc(-c2cccc3nc(C)c(C)n23)cc(NC(=O)c2ccc(OC)cn2)n1 (centres unmarked) [Example 51, N-(4-{2,3-dimethylimidazo[1,2-a]pyridin-5-yl}-6-[2-(methylamino)propanamido]pyridin-2-yl)-5-methoxypyridine-2-carboxamide]
0.001		CNC(C)C(=O)Nc1cc(-c2cncc3ccn(C)c23)cc(NC(=O)c2ccc(Cl)cn2)n1 (centres unmarked) [Example 52, 5-chloro-N-(4-{1-methyl-1H-pyrrolo[3,2-c]pyridin-7-yl}-6-[2-(methylamino)propanamido]pyridin-2-yl)pyridine-2-carboxamide]
0.001		CNC(C)C(=O)Nc1cc(-c2cccc3cncc(C)c23)cc(NC(=O)c2ccc(Cl)cn2)n1 (centres unmarked) [Example 53]
0.011		CNC(C)C(=O)Nc1cc(-c2c(Cl)cnc3ccccc23)cc(NC(=O)c2ccc(Cl)cn2)n1 (centres unmarked) [Example 54, 5-chloro-N-[4-(3-chloroquinolin-4-yl)-6-[2-(methylamino)propanamido]pyridin-2-yl]pyridine-2-carboxamide]
0.045		Cc1cccc2ccn(-c3cc(NC(=O)c4ccc(Cl)cn4)nc(NC(=O)C(C)N)c3)c12 (centres unmarked) [Example 55, N-[6-(2-aminopropanamido)-4-(7-methyl-1H-indol-1-yl)pyridin-2-yl]-5-chloropyridine-2-carboxamide]
4.6		CC(N)C(=O)Nc1cc(Cl)cc(NC(=O)c2ccccn2)n1 (centres unmarked) [Example 56, N-[6-(2-aminopropanamido)-4-chloropyridin-2-yl]pyridine-2-carboxamide]
0.421		Cc1ccc(C(=O)Nc2cccc(NC(=O)C(C)N)n2)nc1 (centres unmarked) [Example 57, N-[6-(2-aminopropanamido)pyridin-2-yl]-5-methylpyridine-2-carboxamide]
0.001		CNC(C)C(=O)Nc1cc(-c2nc(C)nc3c(C)c(C)n(C)c23)cc(NC(=O)c2ccc(Cl)cn2)n1 (centres unmarked) [Example 59, 5-chloro-N-{6-[2-(methylamino)propanamido]-4-{tetramethyl-5H-pyrrolo[3,2-d]pyrimidin-4-yl}pyridin-2-yl}pyridine-2-carboxamide]
	0.034	CNC(C)C(=O)Nc1cc(-c2nc(C)nc3c(C)nn(C)c23)cc(NC(=O)c2ncc(Cl)cc2C)n1 (centres unmarked) [Example 60, 5-chloro-3-methyl-N-{6-[2-(methylamino)propanamido]-4-{trimethyl-1H-pyrazolo-[4,3-d]pyrimidin-7-yl}-pyridin-2-yl}pyridine-2-carboxamide]
0.001		CNC(C)C(=O)Nc1cc(-c2ncnc3c(C)nn(C)c23)cc(NC(=O)c2ncc(Cl)cc2C)n1 (centres unmarked) [Example 61, 5-chloro-N-(4-{1,3-dimethyl-1H-pyrazolo[4,3-d]pyrimidin-7-yl}-6-[2-(methylamino)-propanamido]pyridin-2-yl)-3-methylpyridine-2-carboxamide]
0.001		CNC(C)C(=O)Nc1cc(-c2nc(C)nc3c(C)nn(C)c23)cc(NC(=O)c2ncc(Cl)cc2F)n1 (centres unmarked) [Example 62, 5-chloro-3-fluoro-N-{6-[2-(methylamino)propanamido]-4-{trimethyl-1H-pyrazolo-[4,3-d]pyrimidin-7-yl}-pyridin-2-yl)pyridine-2-carboxamide]
